The subject of test [1] is α-isomaltosyl-transferring enzyme. The test can be described thus: Influence of metal ions on activity of α-isomaltosyl-transferring enzyme (Strain C11). Type of test: biochemical, Bacillus globisporus C11. The note with it: for Relative activity: in the presence of 1 mM of each metal ion, None = 100; for Effect on enzyme activity (in words): 1 mM, summary of Table 8. As to the method:
(§1) The α-isomaltosyl-transferring enzyme was assayed for enzymatic activity by dissolving panose in 100 mM acetate buffer (pH 6.0) to give a concentration of 2% (w/v) for a substrate solution, adding a 0.5 ml of an enzyme solution to 0.5 ml of the substrate solution, enzymatically reacting the mixture solution at 35° C. for 30 min, suspending the reaction mixture by boiling for 10 min, and quantifying glucose, among the cyclotetrasaccharide and glucose formed in the reaction mixture, by the glucose oxidase method. One unit activity of the α-isomaltosyl-transferring enzyme is defined as the enzyme amount that forms one micromole of glucose per minute under the above enzymatic reaction conditions.
(§2) The influence of metal ions on the activity of α-isomaltosyl-transferring enzyme was examined in the presence of 1 mM of each metal-ion according to the assay for the enzyme activity.

Test [2] has as its system α-isomaltosylglucosaccharide-forming enzyme. The test is described as follows: Influence of metal ions on enzyme activity, Experiment 4-2 (Strain C11). The note with it: for Relative activity: in the presence of 1 mM of each metal ion, None = 100; for Effect on enzyme activity (in words): 1 mM, summary of Table 6. Type of test: biochemical, Bacillus globisporus C11.
The test system is the same in test [3]. The test is described as follows: Influence of metal ions on activity of α-isomaltosylglucosaccharide-forming enzyme (Strain C9). The following applies: for Relative activity: in the presence of 1 mM of each metal ion, None = 100; for Effect on enzyme activity (in words): 1 mM, summary of Table 2. In kind it is biochemical, Bacillus globisporus C9. As for the experimental part:
The activities of these enzymes were assayed as follows: The α-isomaltosylglucosaccharide-forming enzyme of the present invention was assayed for enzymatic activity by dissolving maltotriose in 100 mM acetate buffer (pH 6.0) to give a concentration of 2% (w/v) for a substrate solution, adding a 0.5 ml of an enzyme solution to a 0.5 ml of the substrate solution, enzymatically reacting the mixture solution at 35° C. for 60 min, suspending the reaction mixture by heating at 100° C. for 10 min, and quantifying maltose, among the isomaltosyl maltose and maltose formed in the reaction mixture, by high-performance liquid chromatography (abbreviated as “HPLC” hereinafter). HPLC was carried out using “YMC PACK ODS-AQ303 column” commercialized by YMC Co., Ltd., Tokyo, Japan, at a column temperature of 40° C. and a flow rate of 0.5 ml/min of water; and using “RI-8012”, a differential refractometer commercialized by Tosoh Corporation, Tokyo, Japan. One unit activity of the α-isomaltosylglucosaccharide-forming enzyme is defined as the enzyme amount that forms one micromole of maltose per minute under the above enzymatic reaction conditions.
The influence of metal ions on the activity of α-isomaltosylglucosaccharide-forming enzyme was examined in the presence of 1 mM of each metal-ion according to the assay for the enzyme activity.

Test [4] relates to α-isomaltosyl-transferring enzyme. The test is described as follows: Influence of metal ions on activity of α-isomaltosyl-transferring enzyme (Strain C9). The following applies: for Relative activity: in the presence of 1 mM of each metal ion, None = 100; for Effect on enzyme activity (in words): 1 mM, summary of Table 4. Type of test: biochemical, Bacillus globisporus C9. As for the experimental part: as §1, §2

In the case of `[Al+3]` [Al^3+], the Relative activity in test [1] is 89%; in test [2], 100%; in test [3] it was 99%; in test [4] it was 103%.

Consider `[Ba+2]` [Ba^2+], for which the Relative activity in test [1] came out at 90%; in test [2], 65%; in test [3], 65%; in test [4], 102%. The “Effect on enzyme activity (in words)” value in test [2] and in test [3] was “inhibited” in each case.

For `[Ca+2]` [Ca^2+], the “Effect on enzyme activity (in words)” value in test [1] is given as “not activated”; in test [2] it was “activated”; in test [3], “activated”; in test [4] it was “not activated”. Besides, the Relative activity in test [1] is given as 91%; in test [2], 109%; in test [3], 115%; in test [4], 101%.

`[Co+2]` [Co^2+]: the Relative activity was found to be 89% in test [1], 96% in test [2], 100% in test [3] and 103% in test [4].

As to `[Cu+2]` [Cu^2+], the “Effect on enzyme activity (in words)” value in test [1] is “inhibited”; in test [2] it was “greatly inhibited”; in test [3], “greatly inhibited”; in test [4], “inhibited”. The Relative activity in test [1] was determined as 56%; in test [2], 23%; in test [3] it was 15%; in test [4], 57%.

For `O=C(O)CN(CCN(CC(=O)O)CC(=O)O)CC(=O)O` [EDTA], the “Effect on enzyme activity (in words)” value in test [1] was “not inhibited”; in test [2], “greatly inhibited”; in test [3], “greatly inhibited”; in test [4] it was “not inhibited”. For the same molecule, the Relative activity is 98% in test [1], 24% in test [2], 20% in test [3] and 104% in test [4].

On to `[Hg+2]` [Hg^2+], for which the “Effect on enzyme activity (in words)” value in test [1], in test [2], in test [3] and in test [4] was “greatly inhibited” in each case. Besides, the Relative activity in test [1] was found to be 2%; in test [2], 4%; in test [3], 4%; in test [4], 1%.

As to `[Mg+2]` [Mg^2+], the values for the Relative activity in test [1] and in test [3] were 91% and 100%, respectively.

Regarding `[Mn+2]` [Mn^2+], the Relative activity is reported as 93% in test [1], 142% in test [2], 111% in test [3] and 106% in test [4]. Besides, the “Effect on enzyme activity (in words)” value in test [2] and in test [3] was “activated” in each case.

With `[Ni+2]` [Ni^2+], the Relative activity in test [1] is given as 89%; in test [2] it was 93%; in test [4], 102%.

For `[Pb+2]` [Pb^2+], the Relative activity in test [1] was 74%; in test [2], 101%; in test [3], 103%; in test [4] it was 89%.

`[Sr+2]` [Sr^2+]: the Relative activity in test [1] worked out at 93%; in test [2], 83%; in test [3], 80%; in test [4], 101%. Moreover, the “Effect on enzyme activity (in words)” value in test [2] and in test [3] was “inhibited” in each case.

As to `[Zn+2]` [Zn^2+], the Relative activity in test [1] turned out to be 83%; in test [2], 91%; in test [3], 92%; in test [4], 88%.

The record behind these values is patent US20080241904A1, “PROCESS FOR PRODUCING ISOMALTOSE AND USES THEREOF” (KABUSHIKI KAISHA HAYASHIBARA SEIBUTSU KAGAKU KENKYUJO, priority 2001, published 2008).
